From US20240108740A1, “THERAPEUTIC COMPOSITIONS INCLUDING SPN10 AND USES THEREOF” (Stealth BioTherapeutics Inc., priority 2022, published 2024) come the findings set out here.

In series [1] the test system is isolated mouse liver mitochondria. Nature of the series: Example 11: mitochondrial respiration and membrane potential. The protocol: Isolated mouse liver mitochondria will be incubated with 100 pM of SPN10(s) (with or without aromatic-cationic peptides) or peptide conjugates, and oxygen consumption will be measured. […] Mitochondrial membrane potential will be measured using TMRM. It is anticipated that addition of mitochondria will result in immediate quenching of the TMRM signal, which will be readily reversible by the addition of FCCP, indicating mitochondrial depolarization. It is anticipated that the addition of Ca^2+ (150 μM) will result in immediate mitochondrial depolarization followed by progressive loss of quenching indicative of MPT.

The nature of series [2]: Example 16: H2O2 scavenging, luminol-induced chemiluminescence. The format is biochemical. Conditions: H2O2 4.4 nmol. The protocol:
The effect of peptide conjugates, aromatic-cationic peptides, or SPN10(s) (with or without aromatic-cationic peptides) on H2O2 will be measured by luminol-induced chemiluminescence. Luminol (25 μM) and horseradish peroxidase (0.7 IU) will be added to a solution of H2O2 (4.4 nmol) followed by peptide conjugates; aromatic-cationic peptides; or SPN10(s) alone or in combination with aromatic-cationic peptides. Chemiluminescence will be monitored with a Chronolog Model 560 aggregometer (Havertown, PA) for 20 minutes at 37° C.

A further series relates to Sprague Dawley rats. Nature of the series: Example 54: metabolic syndrome (HFD/STZ). The format is in vivo, rat. To be noted: 10 weeks of administration. The protocol:
Sprague Dawley rats will be fed with a high-fat diet (HFD) for 6 weeks and then administered a single dose of STZ (30 mg/kg). The rats will be maintained on HFD until 14 weeks after STZ administration. Control subjects fed normal rat chow (NRC) for 6 weeks will be administered citrate buffer without STZ. After 5 months, diabetic subjects will be treated with peptide conjugates (10 mg/kg, 3 mg/kg, or 1 mg/kg s.c.q.d. (subcutaneously, once daily)), aromatic-cationic peptides (an equivalent molar dose of aromatic-cationic peptide based on the concentration of the aromatic-cationic peptide administered in the peptide conjugate group), SPN10(s) (an equivalent molar dose of SPN10 based on the concentration of SPN10 administered in the peptide conjugate group), SPN10(s) in combination with aromatic-cationic peptides (e.g., an equivalent molar dose of SPN10 based on the concentration of SPN10 administered in the peptide conjugate treatment group and an equivalent molar dose of aromatic-cationic peptide based on the concentration of aromatic-cationic peptide administered in the peptide conjugate treatment group) or control vehicle (saline) 5 days per week for 10 weeks. The study groups will be as follows: • Group A: HFD/STZ+peptide conjugates 10 mg/kg s.c.q.d. (Mon-Fri.), n=12; • Group B: HFD/STZ+peptide conjugates 3 mg/kg s.c.q.d. […]

Structures are written as SMILES. Residues, ends and D or L forms follow the SMILES beside them.

For the molecule `N=C(N)NCCC[C@H](NC(=O)[C@@H](N)Cc1c[nH]c2ccccc12)C(=O)N[C@@H](Cc1c[nH]c2ccccc12)C(=O)N[C@@H](CCCCN)C(N)=O` [SPN10, H-L-Trp-L-Arg-L-Trp-L-Lys-NH2] (H-WRWK-NH2), in series [1] (100 pM), the “respiratory ratio (state 3/state 4)” value is 6.2 versus 6.0. Besides, in series [1] (even at 200 μM), the “mitochondrial depolarization or MPT by the compound alone (TMRM)” value was “will not cause mitochondrial depolarization or MPT”. Moreover, the “luminol response (H2O2 scavenging)” value in series [2] is given as “dose-dependently inhibit the luminol response”. Further, the “blood triglyceride level of HFD/STZ rats” value in the series with Sprague Dawley rats is reported as “reduced to normal levels”.
